Assay results published in patent US20260257993A1, “COMPOUND, RUBBER BLEND CONTAINING THE COMPOUND, VEHICLE TIRE COMPRISING THE RUBBER BLEND IN AT LEAST ONE COMPONENT, PROCESS FOR PRODUCING THE COMPOUND, AND USE OF THE COMPOUND AS AN AGEING PROTECTANT AND/OR ANTIOZONANT AND/OR DYE” (Continental Reifen Deutschland GmbH, priority 2021, published 2026).

Assay: Measurement of oxidation induction time (OIT) by DSC
Conditions: with liquid polyisoprene LIR-50, isothermal 180° C., O2 atmosphere 50 mL/min, DSC peak
Experimental: The compounds of formula II) and III) were investigated under laboratory conditions for their potential protective effect as aging stabilizers by measurement of the oxidation induction time.
To this end the compounds of formula II) and III) and 6-PPD in each case together with a polymer (liquid synthetic polyisoprene (IR), LIR-50, Kuraray, weight average molecular weight distribution Mw=54 000 g/mol, glass transition temperature Tg=−63° C.) were heated at constant temperature (180° C.) until onset of oxidation (start temperature 35° C., heating to 170° C. at a heating rate of 20 K/min (kelvin per minute), heating to 180° C. at a heating rate of 1 K/min; purge gas: nitrogen (N2), volume flow 50 mL/min). The specimen was isothermally maintained for 5 minutes at 180° C. under an N2 atmosphere and the atmosphere was then switched to an 02 atmosphere (volume flow 50 mL/min).
Oxidation was determined via a peak using DSC (differential scanning calorimetry).
The time in minutes to oxidation was measured.

Row | SMILES | Oxidation induction time: time to oxidation [min]
1 | CC(C)CC(C)Nc1ccc(Nc2ccccc2)cc1 (stereo not drawn) [6-PPD, N-(1,3-dimethylbutyl)-N′-phenyl-p-phenylenediamine, reference compound] | 116 ± 10
2 | CC(C)CC(C)Nc1ccc2[nH]c(-c3ccccc3)cc2c1 (stereo not drawn) [formula II), 2-phenyl-5-(1,3-dimethylbutylamino)-1H-indole] | 105 ± 10
3 | CC(C)CC(C)Nc1ccc2[nH]c(C3CCCCC3)cc2c1 (stereo not drawn) [formula III), 2-cyclohexyl-5-(1,3-dimethylbutylamino)-1H-indole] | 205 ± 10
